Assay results: patent US9526720B2, “Modulators of hepatic lipoprotein metabolism” (The Broad Institute, Inc., priority 2012, dated 2016)
Entries after “also recorded” stand apart in the source; their conditions may differ.

Assays:
SCAP = test: qPCR SCAP transcript level in HepG2 cells; format: cell-based, human; set-up: key: A: Increase <2-fold; B: Increase >2-fold; X: Decrease <2-fold; Y: Decrease >2-fold; No significant change
Experimental: (§1) In the primary screen, HepG2 cells were plated in 384-well plates at 2000 cells per well and incubated for 20 hours with each compound in duplicate at 10 microM concentration. Then RNA was isolated, reverse-transcribed to cDNA, and stored at −80° C. Expression levels of TRIB1 and other target genes, such as SORT1 and PCSK9, were determined by quantitative PCR. Relative gene expression level was normalized to expression of the housekeeping gene, GAPDH. A “hit” was defined as those compounds that caused a greater than 2-fold increase in relative target gene expression when normalized to GAPDH expression, compared to DMSO-treated control. Using these criteria, 130 hits were identified for TRIB1 (0.8% hit rate).
(§2) Further analysis of the expression levels of various proteins in the cholesterol and triglyceride biosynthetic pathways in response to TRIB1 inducer treatment was performed. In particular, transcript levels of additional lipoprotein metabolism pathway proteins SCAP, SREBF1, SREBF2, HMGCR, HMGCS, SCD1, FASN and MTTP were assessed by qPCR, along with TRIB1, LDLR, and PCSK9. The gene expression profile for the same subset of genes was also assessed after treatment with the statin atorvastatin (Lipitor), commonly used in therapy for hypercholesterolemia and other cardiovascular diseases.

LDLR [1] = test: ELISA of LDLR protein in HepG2 cells; format: cell-based, human; conditions: for ELISA LDLR: HepG2 cells
Experimental: (§3) Additional secondary assays were performed in HepG2 cells to further characterize the cellular response to treatment with select confirmed TRIB1 inducer hits. The results of the ELISA, CTG, and qPCR secondary assays are summarized in Table B. For all secondary assays, the experiments were performed using powders of freshly purified compounds.
(§4) To further characterize the relationship of TRIB1 induction and PCSK9 reduction, ELISAs were performed to measure the levels of secreted ApoB, PCSK9, and LDLR. […] As predicted treatment with TRIB1 inducer hits caused a decrease in ApoB levels detected by ELISA. In parallel effort, 3200 BIOA and NATP compounds were screened for PCSK9 expression inhibitors. Hits were defined as inducing greater than 3-fold downregulation of PCSK9, and 3.8% of the screened compounds were confirmed as hits. […] In further experiments, a strong correlation was confirmed between TRIB1 induction and PCSK9 repression in DOS Collection hits. ELISA analysis confirmed that treatment with TRIB1 inducers reduced the PCSK9 protein levels. LDLR protein levels were also analyzed by ELISA to determine whether compounds that modulate both TRIB1 and PCSK9 had any effect on LDLR protein levels.

HMGCS = test: qPCR HMGCS transcript level in HepG2 cells; format: cell-based; conditions: Homo sapiens, 20 h
Experimental: as §1, §2

TRIB1 [2] = test: qPCR TRIB1 expression in HepG2 cells; format: cell-based, human; conditions: for TRIB1 expression (in words): qPCR; for fold induction at 10 µM: Homo sapiens, 20 h, HepG2 cells
Experimental: as §1, §2
(§5) The kinetics of the modulation of TRIB1, LDLR, PCSK9 and MTTP gene expression after treatment by select TRIB1 inducer compounds was monitored by qPCR analysis (FIG. 4). RNA was extracted from cells at various timepoints over 28 hours of treatment (0, 2, 4, 6, 8, 24, 28 hours). Specifically, compounds 12a and 14a induced transcriptional responses over time similar to those produced by berberine, a plant alkaloid used in Chinese medicine. […] Both compound 12a and compound 14a induce TRIB1 and LDLR and repress PCSK9 and MTTP expression with similar kinetics and similar fold change as berberine Importantly, both compounds induce these gene expression changes at much lower concentrations than berberine. […] This increased potency indicates the potential therapeutic efficacy of such compounds for treatment of cardiovascular diseases, particularly hypercholesterolemia and related conditions.

HepG2 cells [3] = test: Cell Titer Glo (CTG) cell viability assay; format: cell-based, human; set-up: key: A: Increase <2-fold; B: Increase >2-fold; X: Decrease <2-fold; Y: Decrease >2-fold; No significant change; conditions: cell viability (ATP)
Experimental: Cell viability was determined using a Cell Titer Glo (CTG) assay ([…]) after treatment with TRIB1 inducer compounds. In this assay, the number of viable cells in culture is based on quantitation of ATP, which indicates metabolically active cells. Addition of the reagent results in cell lysis and generation of a luminescent signal proportional to the amount of ATP present, which is directly proportional to the number of viable, metabolically active cells present in culture. Most TRIB1 inducer compounds had no significant effect on cell viability.

HepG2 cells [4] = test: BODIPY-FL LDL uptake in HepG2 cells (high content microscopy); format: cell-based, human; conditions: treated 20 hours; BODIPY-FL LDL uptake monitored 5 hours
Experimental: TRIB1 inducers increase the rate of LDL uptake. HepG2 cells grown under standard culture conditions (10% FBS) were treated for 20 hours with compounds 2a, 14a and 12a at indicated concentrations and the uptake of BODIPY-FL conjugated LDL particles was monitored for 5 hours using high content microscopy. To control for regulation of LDL uptake by cholesterol, cells were grown in media depleted for (0.5% LPDS—lipoprotein deficient serum) or supplemented with cholesterol (0.5% LPDS plus cholesterol ([…] cholesterol and […] 25-OH cholesterol)).

SCD1 = test: qPCR SCD1 transcript level in HepG2 cells; format: cell-based; conditions: Homo sapiens, 20 h
Experimental: as §1, §2

SREBF1 = test: qPCR SREBF1 transcript level in HepG2 cells; format: cell-based, human; set-up: key: A: Increase <2-fold; B: Increase >2-fold; X: Decrease <2-fold; Y: Decrease >2-fold; No significant change
Experimental: as §1, §2

PCSK9 [5] = test: qPCR PCSK9 expression in HepG2 cells; format: cell-based, human; conditions: for PCSK9 expression (in words): qPCR; for fold induction at 10 µM: Homo sapiens, 20 h, HepG2 cells
Experimental: as §1, §2, §5

LDLR [6] = test: qPCR LDLR expression in HepG2 cells; format: cell-based, human; conditions: for induction of LDLR expression in combination with simvastatin (in words): overnight simvastatin, then compound
FASN = test: qPCR FASN transcript level in HepG2 cells; format: cell-based; conditions: Homo sapiens, 20 h
Experimental: as §1, §2

ApoB = test: ELISA of secreted ApoB in HepG2 cells; format: cell-based, human; conditions: for ELISA ApoB: HepG2 cells
Experimental: as §3, §4

PCSK9 [7] = test: ELISA of secreted PCSK9 protein in HepG2 cells; format: cell-based, human; conditions: for ELISA PCSK9: HepG2 cells
Experimental: as §3, §4

HMGCR = test: qPCR HMGCR transcript level in HepG2 cells; format: cell-based, human
Experimental: as §1, §2

LDLR [8] = test: qPCR LDLR expression in HepG2 cells; format: cell-based, human; conditions: for LDLR expression (in words): HepG2, qPCR; for qPCR LDLR: HepG2 cells
Experimental: as §1, §2, §5

APOC3 = test: Transcriptional profiling of APOC3 gene in HepG2 cells; format: cell-based, human; conditions: 10 μM, 24 hours
Excerpt: Expression of APOC3 is associated with increased levels of triglycerides in plasma and carriers of APOC3 gene null mutation have low levels of triglycerides and are protected from cardiovascular disease (Pollin et al., Science, 322:1702, 2008).

SREBF2 = test: qPCR SREBF2 transcript level in HepG2 cells; format: cell-based, human; set-up: key: A: Increase <2-fold; B: Increase >2-fold; X: Decrease <2-fold; Y: Decrease >2-fold; No significant change
Experimental: as §1, §2

TRIB1 [9] = test: qPCR TRIB1 expression in HepG2 cells; format: cell-based; conditions: Homo sapiens, HepG2; induction of TRIB1 and LDLR transcript levels; read-out: half maximal effective concentration (EC50)
MTTP = test: qPCR MTTP expression in HepG2 cells; format: cell-based, human; conditions: 28 hour time course
Experimental: as §2
The kinetics of the modulation of TRIB1, LDLR, PCSK9 and MTTP gene expression after treatment by select TRIB1 inducer compounds was monitored by qPCR analysis (FIG. 4). RNA was extracted from cells at various timepoints over 28 hours of treatment (0, 2, 4, 6, 8, 24, 28 hours). Specifically, compounds 12a and 14a induced transcriptional responses over time similar to those produced by berberine, a plant alkaloid used in Chinese medicine. […] Both compound 12a and compound 14a induce TRIB1 and LDLR and repress PCSK9 and MTTP expression with similar kinetics and similar fold change as berberine Importantly, both compounds induce these gene expression changes at much lower concentrations than berberine. […]

[10] = at the maximal dose tested, HepG2

Row | SMILES | qPCR SCAP (SCAP) | ELISA LDLR (LDLR [1]) | fold induction at 10 µM (HMGCS) | TRIB1 expression (in words) (TRIB1 [2]; HepG2) | fold induction at 10 µM (TRIB1 [2]) | CTG (HepG2 cells [3]) | rate of LDL uptake (in words) (HepG2 cells [4]) | fold induction at 10 µM (SCD1) | qPCR SREBF1 (SREBF1) | PCSK9 expression (in words) (PCSK9 [5]; HepG2) | fold induction at 10 µM (PCSK9 [5]) | expression of PCSK9 stimulated by pretreatment with atorvastatin (in words) (PCSK9 [5]) | induction of LDLR expression in combination with simvastatin (in words) (LDLR [6]) | fold induction at 10 µM (FASN) | ELISA ApoB (ApoB) | ELISA PCSK9 (PCSK9 [7]) | qPCR HMGCR (HMGCR) | LDLR expression (in words) (LDLR [8]) | qPCR LDLR (LDLR [8]) | qPCR SREBF2 (SREBF2) | other results
1 | CN1C(=O)c2cc(NC(=O)c3ccc(C(F)(F)F)cc3)ccc2OC[C@@H]2O[C@@H](CC(=O)NC3Cc4ccccc4C3)CC[C@@H]21 [Compound 2a] | N | B (Increase >2-fold) | > 2 | robustly induced | > 2 | N | robust increase | > 2 | N | strongly reduced | > 2 | potently reduced | additive effect | > 2 | Y (Decrease >2-fold) | Y (Decrease >2-fold) | Y (Decrease >2-fold) | induction of LDLR expression; also recorded: robustly induced | B (Increase >2-fold) | N | increase of the LDL receptor protein in the cell (LDLR [1]; HepG2): 3 fold; inhibition of expression of PCSK9 mRNA (PCSK9 [5]; [10]): 70%; secretion of apoB into the media / ApoB levels (in words) (ApoB; HepG2): inhibited secretion of apoB; inhibition of secretion of PCSK9 protein into the media (PCSK9 [7]; [10]): 70%; expression of APOC3 gene (in words) (APOC3): down regulates
2 | O=C(C[C@H]1C[C@H]2c3cc(NS(=O)(=O)c4ccc(F)cc4)ccc3O[C@H]2[C@H](CO)O1)NCc1ccc(Oc2ccccc2)cc1 [Compound 13a] | N | X (Decrease <2-fold) | > 2 | – | > 2 | N | – | > 2 | N | – | > 2 | – | – | < 2 | Y (Decrease >2-fold) | Y (Decrease >2-fold) | Y (Decrease >2-fold) | – | B (Increase >2-fold) | N | –
3 | CN1C(=O)c2cc(NC(=O)c3ccc(C(F)(F)F)cc3)ccc2OC[C@@H]2O[C@H](CC(=O)NC3Cc4ccccc4C3)CC[C@@H]21 [Compound 14a] | – | – | – | induce; also recorded: robustly induced | – | – | robust increase | – | – | repress; also recorded: strongly reduced | – | potently reduced | additive effect | – | – | – | – | induce; also recorded: robustly induced | – | – | potency relative to berberine (TRIB1 [2]; TRIB1, LDLR, PCSK9 and MTTP gene expression changes, HepG2): 10 fold; decrease of PCSK9 mRNA below the level induced by cholesterol starvation (PCSK9 [5]; 2.5 μM, 0.5% LPDS, 24 h): 3.8 fold; LDLR signal over the non-depleted control (LDLR [6]; 2.5 μM, 0.5% LPDS, 24 h): 9 fold; EC50 (ApoB; Homo sapiens, HepG2, 24 h, read-out: ELISA 24 Hr (EC50 uM) ApoB decrease): 1.1 to 2 µM; EC50 (PCSK9 [7]; Homo sapiens, HepG2, 24 h, read-out: ELISA 24 Hr (EC50 uM) PCSK9 decrease): 0.51 to 1 µM; EC50 (TRIB1 [9]): < 1 µM; EC50 (LDLR [8]; Homo sapiens, HepG2, 6 h, read-out: qPCR 6Hr (EC50 uM) LDLR up-regulation): 0.51 to 1 µM; MTTP expression (in words) (MTTP): repress
